The values below come from article PMC10808794, “Snakebite drug discovery: high-throughput screening to identify novel snake venom metalloproteinase toxin inhibitors” (Frontiers in Pharmacology, 2024).

The target in one series is 5 alpha Reductase. More on the design: method as in MedChemExpress. The conditions noted are these: benign prostatic hyperplasia, ref MedChemExpress, cited from earlier work.
On the set-up of series [1]: method as in MedChemExpress. The settings on record: ref MedChemExpress; cited from earlier work.
Series [2] relates to SVMP activity of Echis ocellatus venom. In words: SVMP fluorogenic substrate assay, E. ocellatus venom. Format: biochemical. The settings on record: for EC50: E. ocellatus venom, 20-min endpoint, N/A = did not cross 50% inhibition at any dose, read-out: EC50, known inhibitors validation screen; for activity at the top dose tested: top 10 µM dose, negative control drugs.
Description: (§1) Daughter plates and assay-ready plates were stored at −20°C, with the latter used within a month of creation. For SVMP assay-ready plates, 0.91 µL of each drug from the respective daughter plate was plated, such that in the final assay volume of 91 μL, a final concentration of 10 µM was reached. […] In secondary screening, dose response curves were created, with a top final assay concentration of 10 µM and reaching sub-nanomolar concentrations (concentration range was dependent on specific plate layout), with each concentration tested in duplicate.
(§2) The SVMP activity of crude venom in the presence of inhibitors or vehicle control (DMSO) was measured using a quenched fluorogenic substrate (substrate for MMPs, ADAMs and Cathepsins, Cat no: ES010, Bio-Techne). […] Reactions consisted of 1 µg of venom in 15 µL PBS co-incubated with 0.91 µL of inhibitor at a concentration of 1 mM. […] The plates were read on a CLARIOstar microplate reader (BMG Labtech), at an excitation wavelength of 320–10 nm and emission wavelength of 420–10 nm with 10 flashes per well at 25°C, at a pre-defined end read time. The end-read times were selected independently for each venom, as the plateau point for the venom + vehicle control (maximum fluorescence) identified in an initial 1-h kinetic read.
(§3) The SVMP activity for the end-read data was calculated for each test condition as a percentage of the mean of the venom + vehicle wells (100% activity), with a baseline of the marimastat 10 µM controls representing 0% activity (Supplementary Equation S1).
In series [3] the test system is SVMP activity of Calloselasma rhodostoma venom. In words: SVMP fluorogenic substrate assay, C. rhodostoma venom. It counts as biochemical. The conditions noted are these: 20-min endpoint, read-out: EC50, known inhibitors validation screen.
Description: as §1, §2, §3
For series [4], the system named is SVMP activity of Bothrops jararaca venom. In words: SVMP fluorogenic substrate assay, B. jararaca venom. It counts as biochemical. The settings on record: 30-min endpoint, read-out: EC50, known inhibitors validation screen.
Description: as §1, §2, §3
Series [5] deals with SVMP activity of Bitis arietans venom. In words: SVMP fluorogenic substrate assay, B. arietans venom. The conditions noted are these: 40-min endpoint, read-out: EC50, known inhibitors validation screen. It counts as biochemical.
Description: as §1, §2, §3
For series [6], the system named is SVMP activity of Crotalus atrox venom. In words: SVMP fluorogenic substrate assay, C. atrox venom. The settings on record: read-out: EC50, known inhibitors validation screen, 30-min endpoint.
Description: as §1, §2, §3
Series [7] relates to SVMP activity of five viper venoms. Put plainly: SVMP fluorogenic substrate assay, summary across the panel of five viper venoms. Format: biochemical. The settings on record: for EC50: five venoms.
Description: as §1, §2, §3
For a further series, the system named is 5-HT2A. Also noted: method as in MedChemExpress. The conditions noted are these: IP accumulation assays; ref MedChemExpress; read-out: IC50, 5-HT2A inverse agonist; cited from earlier work.
For a further series, the system named is 5-HT2C. More on the design: method as in MedChemExpress. The settings on record: IP accumulation assays; ref MedChemExpress; read-out: IC50, 5-HT2C partial inverse agonist; cited from earlier work.
A further series concerns 5-HT2B. Also noted: method as in MedChemExpress. The conditions noted are these: IP accumulation assays; ref MedChemExpress; read-out: IC50, 5-HT2B inverse agonist; cited from earlier work.
For series [8], the system named is patients. Also noted: method as in Conatus Pharmaceuticals Inc, 2012. The settings on record: 30 mg per day for up to 24 weeks; ref Conatus Pharmaceuticals Inc, 2012; cited from earlier work.
Series [9] concerns patients. More on the design: method as in Bissett et al., 2005. The conditions noted are these: ref Bissett et al., 2005, cited from earlier work.
Details of series [10]: method as in Williams et al., 2011b. The conditions noted are these: ref Williams et al., 2011b; cited from earlier work.
Setting [11] is: read-out: EC50 against each of the venoms, secondary screen.
Setting [12] is: validation screen, read-out: EC50 range across all venoms, known inhibitors.
The mark [13] stands for this setting: validation screen, read-out: average EC50 across all venoms.

In brackets after ≈: the same amount, converted by molar mass. Several values for one entry are separate records, joined by “and”; a condition that tells them apart may be missing. Identical values can stand only once. Counter-ions that a name gives are not always drawn. Like-named read-outs stand apart in the source and are kept apart here. Where only a bound is given, the exact number is not on record here.

With `CC(C)(C)NC(=O)[C@H]1CC[C@H]2[C@@H]3CC[C@H]4NC(=O)C=C[C@]4(C)[C@H]3CC[C@]12C` [Finasteride], the inhibitory constant (Ki) (commonly a dissociation constant, usually derived from enzyme kinetics or from competition with a known ligand) at 5 alpha Reductase (epithelium, read-out: Ki, 5alpha-reductase activity in epithelium) was 0.01 µM; on 5 alpha Reductase (stroma, read-out: Ki, 5alpha-reductase activity in stroma) it was 0.033 µM. The “Solubility in DMSO” value in series [1] was 150 mg/mL and 402.64 mM.
Regarding `CNC(=O)[C@@H](NC(=O)[C@H](CC(C)C)[C@H](O)C(=O)NO)C(C)(C)C` [marimastat, (2S,3R)-N4-[(1S)-2,2-Dimethyl-1-[(methylamino)carbonyl]propyl]-N1,2-dihydroxy-3-(2-methylpropyl)butanediamide], the 50% effective concentration (EC50) (usually the midpoint of the concentration-response curve) in series [2] is 0.00499 µM; in series [3] it was 0.0277 µM; in series [4], 0.00746 µM; in series [5] it was 0.00236 µM; in series [6], 0.012 µM.
Take `OCCN1C[C@H](O)[C@@H](O)[C@H](O)[C@H]1CO` [miglitol]: in series [7] (setting [11]), the EC50 was > 1 µM.
The same measure, in the same setting: with `Cn1c(=O)cc(N2CCC[C@@H](N)C2)n(Cc2cc(F)ccc2C#N)c1=O` [trelagliptin (succinate), trelagliptin] the figure was > 1 µM.
Consider `COc1ccc(NC(=O)Nc2ccc(F)cc2F)cc1-c1c(Br)cnn1C` [Nelotanserin], for which the IC50 – broadly, the concentration at which inhibition is half-maximal – in the series with 5-HT2A was 0.0017 µM; with 5-HT2C, 0.079 µM; in the series on 5-HT2B, 0.791 µM. Besides, the “Solubility in DMSO” value in series [1] was ≥ 32 mg/mL and ≥ 73.19 mM.
Turning to `O=C(NO)C1(CS(=O)(=O)c2ccc(Oc3ccc(Cl)cc3)cc2)CCOCC1` [CTS-1027], the “adverse events in Phase II trials” value with patients [8] was “a range of serious adverse events”.
For the molecule `S=C(N/N=C1\CCCc2cccnc21)N1CCN(c2ccccn2)CC1` [COTI-2], the “fold superiority of EC50 to dimercaprol” value in series [7] (across all venoms, secondary screen) is > 2 fold. For the same molecule, the EC50 in series [7] (read-out: EC50 range across all venoms, secondary screen) lay within 0.185 to 0.64 µM.
Take `CS(=O)(=O)O.N=C(N)c1ccc2cc(OC(=O)c3ccc(N=C(N)N)cc3)ccc2c1` [nafamostat, (6-Carbamimidoylnaphthalen-2-yl)4-(diaminomethylideneamino)benzoate methanesulfonic acid]: in series [2], the “activity at the top dose tested” value is recorded as “no activity”.
As for `NS(=O)(=O)c1cc2c(cc1Cl)N=CNS2(=O)=O` [chlorothiazide], in series [7] (setting [11]), the half-maximal effective concentration (EC50) is > 1 µM.
For `CCc1c(C(=O)C(N)=O)c2c(OCC(=O)O)cccc2n1Cc1ccccc1` [varespladib, 2-[[3-(2-Amino-2-oxoacetyl)-2-ethyl-1-(phenylmethyl)-1H-indol-4-yl]oxy]-acetic acid], the “activity at the top dose tested” value in [2] is given as “no activity”.
In the case of `CC1(C)SCCN(S(=O)(=O)c2ccc(Oc3ccncc3)cc2)[C@H]1C(=O)NO` [prinomastat, prinomastat hydrochloride], the concentration for a half-maximal effect (EC50) in series [2] was found to be 0.00435 µM; in [3], 0.0367 µM; in [4], 0.00953 µM; in [5] it was 0.00242 µM; in series [6] it was 0.0198 µM. Besides, the “toxicity observed in Phase III trials” value with patients [9] (15 mg bi-daily dosing for 3–36 months) is listed as “musculoskeletal toxicity was observed in a significant proportion of patients”. Moreover, the “thromboembolic risk in Phase III trials” value in the series with patients [9] (cancer patients receiving combination chemotherapy) was “increased risk of venous thromboembolic disease”.
Regarding `O=S(=O)(O)CC(S)CS` (stereo not shown) [DMPS, 2,3-dimercapto-1-propane-sulfonic acid sodium salt monohydrate], the 50% effective concentration (EC50) in [2] was 0.959 µM; in [3], 5.28 µM; in series [4] it was 0.527 µM; in series [5], 1.21 µM; in series [7] (setting [12]), 0.527 to 5.28 µM; in [7] (setting [13]), 2.25 µM. Also, the EC50 in series [6] amounted to 3.26 µM.
As for `COCCOC(=O)N1CCN(S(=O)(=O)c2cc(F)c(Oc3ccc(Cl)cc3)c(F)c2)C(C(=O)NO)C1` (stereo not shown) [XL-784], the aqueous solubility (in general, the concentration that dissolves in the medium under given conditions) in series [10] was 20 µg/mL (≈ 36.4 µM).
For the molecule `CNC(=O)[C@H](Cc1ccccc1)NC(=O)[C@H](CC(C)C)[C@H](CSc1cccs1)C(=O)NO` [batimastat, (2R,3S)-N4-Hydroxy-N1-[(1S)-2-(methylamino)-2-oxo-1-(phenylmethyl)ethyl]-2-(2-methylpropyl)-3-[(2-thienylthio)methyl]butanediamide], the concentration for a half-maximal effect (EC50) came to 0.00623 µM in series [2]; 0.042 µM in series [3]; 0.00557 µM in series [4]; 0.00249 µM in series [5]; 0.0154 µM in [6].
For `OCC(S)CS` (stereo not shown) [dimercaprol, 2,3-dimercapto-1-propanol], the concentration for a half-maximal effect (EC50) is 1.12 µM and 1.13 µM in series [2]; 6.86 µM in series [3]; 0.558 µM in series [4]; 2.29 µM in series [5]; 0.558 to 6.86 µM in series [7] (setting [12]); 3.14 µM in series [7] (setting [13]). Moreover, in series [6], the EC50 stood at 4.89 µM.
For the molecule `O=C(/C=C/c1cccc(S(=O)(=O)Nc2ccccc2)c1)NO` [belinostat], the half-maximal effective concentration (EC50) in [7] (setting [11]) was > 1 µM.
Turning to `C[C@]12C=CC(=O)N[C@@H]1CC[C@@H]1[C@@H]2CC[C@]2(C)[C@@H](C(=O)Nc3cc(C(F)(F)F)ccc3C(F)(F)F)CC[C@@H]12` [Dutasteride], in series [1], the “Solubility in DMSO” value is 63.06 mM (≈ 33.3 mg/mL).
